In US7022484B2, “Methods for treating neuropathological states and neurogenic inflammatory states and methods for identifying compounds useful therein” (Board of Regents, The University of Texas System, priority 2000, dated 2006):

Columns and labels:
NR1 subunit [1] = experiment: Western blot of NR1 in cytosolic and nuclear extracts of SW982 cells; format: cell-based, human; settings: 12 hours, increasing concentrations of NMDA
Procedure: The cultured cell lines used in these studies were the human neuroblastoma clonal line, SHSY5Y, and the human synovial sarcoma clonal line, SW982, both available through the American Tissue Type Culture Collection (item number CRL 2266 and HTB-93, respectively). Cells were grown in Dulbecco's Modification of Eagles Medium (DMEM) without L-glutamine, with 4.5 grams/Liter glucose, and with 10% bovine fetal serum in a tissue culture incubator at 37° C. in a gaseous mixture of O2/CO2. Cells were routinely split as necessary to maintain proper cell density. Cells were removed from plates by adding TRYPSIN/EDTA in Hank's Balanced Salt solution. After cell counts, approximately 10,000 cells were plated per well in a culture dish. For experiments, the cells were plated into 35 mm Petri dishes or 6- or 24-well plates as needed. […]
Western blot analysis was used to measure NR1 in both nuclear and cytosolic or total protein extracts using established methods (Kaufmann et al., J. Neurochem., 76, 1099–1108 (2001)). […] After three washes with Tris-buffered saline, immunoreactive bands were detected by a chemiluminescent Western blot detection kit (Amersham, Buckingamshire, UK, Catalog Number RPN2106) according to the manufacturer's instructions.

NR1 subunit [2] = experiment: Immunocytochemistry of NR1 translocation in neuroblastoma clonal line SHSY5Y; format: cell-based, human; settings: neuroblastoma clonal cell model
NR1 subunit [3] = experiment: Immunocytochemistry of NR1 translocation in synovial clonal line SW982; format: cell-based, human; settings: synovial clonal cell model
Procedure: The cultured cell lines used in these studies were the human neuroblastoma clonal line, SHSY5Y, and the human synovial sarcoma clonal line, SW982, both available through the American Tissue Type Culture Collection (item number CRL 2266 and HTB-93, respectively). Cells were grown in Dulbecco's Modification of Eagles Medium (DMEM) without L-glutamine, with 4.5 grams/Liter glucose, and with 10% bovine fetal serum in a tissue culture incubator at 37° C. in a gaseous mixture of O2/CO2. Cells were routinely split as necessary to maintain proper cell density. Cells were removed from plates by adding TRYPSIN/EDTA in Hank's Balanced Salt solution. After cell counts, approximately 10,000 cells were plated per well in a culture dish. For experiments, the cells were plated into 35 mm Petri dishes or 6- or 24-well plates as needed.
For immunocytochemistry experiments and some western blot experiments, SW982 cells were exposed to glutamate (1 μM to 10 μM), or glutamate analog NMDA (or related glutamate compound)(5 μM) and Genistein (10 mM). At various timepoints of exposure, including 4, 12, and 24 hours, cells were collected for Western blot measurement of NR1 or fixed with aldehydes and stained to visualize the location of glutamate receptor subunit NR1 using a specific antibody directed to either the C-terminus or the N-terminus of the NR1 protein. […]

[4] = test system: protein tyrosine kinase (PTK); settings: cited from earlier work
rat arthritis model = experiment: Paw withdrawal latency (PWL) to radiant heat in rat kaolin/carrageenan knee joint inflammation model; format: in vivo; settings: spinal microdialysis pre-treatment; 4 hours after induction of arthritis
Procedure: All studies followed the guidelines of the Institute Animal Care and Use Committee, in accordance with the guidelines of the National Institutes of Health. All animals were hosted in a room with a constant ambient temperature of 22° C. and 12 hour light/dark cycle with free access to food and water. Eighty-five Sprague-Dawley rats (250–300 grams) total were used in experiments conducted for biochemical, behavioral, and immunocytochemistry studies. […] On Day 2 baseline behavioral testing was followed by infusion of agents for 1.5 hours (pretreatment) prior to induction of knee joint inflammation under brief anesthesia. Behavioral testing was repeated 4 hours after induction of joint inflammation. Anesthetized animals were either transcardially perfused with aldehydes for immunohistochemical studies or fresh, frozen tissues collected for biochemical studies.
A microdialysis fiber was implanted into the spinal dorsal horn of anesthetized rats (sodium pentobarbital, 50 mg/kg) one day prior to the induction of arthritis according to the procedure of Skilling et al. (J. Neurochem., 51:127–132 (1988)), as described in Sluka et al. (Neurosci. Lett., 145:141–144 (1992)). Briefly, a small midline incision was made in the skin over the T12 vertebral level. The vertebrae were cleared of muscle and two 1 millimeter (mm) holes were drilled in the lateral aspect of both sides of the T12 vertebrae to expose the L4 spinal segment. A microdialysis fiber ([…], 45,000 MW cut-off, Hospal, AN69, Hospal Industrie, Meyzieu, France), was passed transversely across the deep dorsal horn and stabilized with dental cement. The microdialysis fiber was then passed through the holes in the vertebrae and transversely through the dorsal horn of the spinal cord. A 2 mm section of the microdialysis fiber lies in the dorsal horn at the level of L3–4 segment. The tubing was coated with epoxy except for a permeable portion passing through the spinal grey matter. The microdialysis fiber was connected to PE20 tubing (Becton Dickinson and Company, San Mateo, Calif.) which was tunneled under the skin to the nape of the neck. Alternatively as a systemic control for drug administration, the microdialysis fiber was implanted only in the subcutaneous tissue over the back muscle and tunneled to the neck. Artificial cerebrospinal fluid (aCSF) was made as described by Sorkin et al. (J. Neurosci. Methods, 23, 131–138 (1988)) and was infused (5 microliters/minute) for 1.5 hours and then the tube was heat-sealed for use on the following day.
Dose response curves were generated for Genistein with animals receiving Genistein spinally at concentration of 0.2 mM (n=3), 0.5 mM (n=3), 1 mM (n=9), and 2 mM (n=3). Animals received Lavendustin A or B spinally at concentrations of 0.1 mM (n=3), 0.5 mM (n=3), and 1 mM (n=5) as a positive and negative control for Genistein. […] Daidzein was tested at a dose of 1 mM (n=3). […] Eight additional animals received the vehicle, 50% DMSO in aCSF, as a control.
An acute inflammatory response restricted to the knee joint can be induced by the injection of 3% kaolin and 3% carrageenan (in sterile saline; 0.1 ml; pH 7.4) into the joint cavity while the animal is briefly anesthetized with sodium methohexital (Brevital, 60 mg/kg, i.p.). Kaolin and carrageenan were obtained from Fisher Scientific, St. Louis, Mo. The knee joint is flexed manually until the rat awakes (approximately 5–10 minutes). In this arthritis model in the awake rat, localized joint swelling, as well as limping and guarding of the limb, are well developed at 4 hours (Sluka et al., Pain, 59, 95–100 (1994)) when behavioral testing begins.
Fifty-five rats were used for behavioral studies. Four hours after induction of the arthritis, the joint is swollen and increased withdrawal responses to radiant heat and spontaneous guarding of the limb were noted. The increased responsiveness to noxious stimuli indicates the presence of secondary hyperalgesia. […]

NMDA currents = settings: patch clamp studies; cited from earlier work

| Compound | NR1 in the cytosol (NR1 subunit [1]) | NR1 in the nuclear compartment (NR1 subunit [1]) | NR translocation to the nucleus (NR1 subunit [2]) | NR translocation to the nucleus (NR1 subunit [3]) | PTK inhibitory activity [4] | development of secondary hyperalgesia (rat arthritis model) | effect on NMDA currents (NMDA currents) |
| --- | --- | --- | --- | --- | --- | --- | --- |
| CN[C@H](CC(=O)O)C(=O)O [NMDA, N-methyl-D-aspartate] | dose-dependent reduction of NR1 in the cytosol | appearance of NR1 in the nuclear compartment | replicated the visualization of NR translocation to the nucleus | replicated the visualization of NR translocation to the nucleus | – | – | – |
| O=c1c(-c2ccc(O)cc2)coc2cc(O)ccc12 [Daidzein] | – | – | – | – | lacks PTK inhibitory activity | ineffective in altering the nociceptive outcome of knee joint inflammation | has no effect on NMDA currents |
